Assay results: PMC7961786, “Magic Peptide: Unique Properties of the LRR11 Peptide in the Activation of Leukotriene Synthesis in Human Neutrophils” (International Journal of Molecular Sciences, 2021)

Legend:
human neutrophils = test: Intracellular free Ca^2+ in neutrophils (Fluo-3); assay type: cell-based; conditions: Figure 9
Protocol: Figure 9 Effects of ODNs and LRR11 on intracellular concentration of free Ca^2+ in neutrophils. Fluo-3 AM-loaded neutrophils (1 × 10^6/mL) were cultured in fibrinogen-coated flat bottom plates in HBSS/HEPES medium supplemented or not with 1 µM LRR11, without additives or in the presence of 1 µM ODNs, at 37 °C, 5% CO2. Fluo-3 fluorescence signals (ex. 485 nm, em. 538 nm) were monitored with 2-min intervals. (A) Values represent the means ± SEM of fluorescence intensity increments in 7 min after the addition of stimulus (n = 3). * p < 0.05, ** p < 0.01, **** p < 0.001 compared with the control, as indicated by two-way ANOVA followed by Sidak’s multiple comparison test. (B) Representative blank corrected Fluo-3 fluorescence kinetic curves for control (square, black solid line), LRR11 (circle, black dotted line), A-CpG (square, red solid line) and LRR11_A-CpG mix (circle, red dotted line).
Intracellular Ca^2+ ions were detected by staining with Fluo-3, which is known to dramatically increase fluorescence after binding of calcium ions, was used. According to the manufacturer’s protocol, human neutrophils were incubated with 5 μM Fluo-3 AM ester (Thermo Fisher Scientific, Waltham, MA, USA) for 60 min at room temperature, followed by washing in PBS. Cells were then seeded in fibrinogen-coated 96-well plates (1 × 10^6/mL of HBSS/HEPES) and incubated at 37 °C in 5% CO2. Changes in fluorescence intensity upon excitation at 485 nm and emission at 538 nm were monitored at CLARIOstar fluorescence microplate reader for at least 60 min after stimulus injection, followed by data analysis using MARS Data Analysis Software, version 3.30 (both hardware and software are from BMG Labtech, Ortenberg, Germany).

PMNLs = test: Neutrophil adhesion to fibrinogen-coated plates; assay type: cell-based, human; conditions: 1 µM ODN +/- 1 µM LRR11, 20 min, 37 °C, n = 3, Figure S2a
Protocol: Figure S2a. Effects of ODNs and LRR11 peptide on neutrophil adhesiveness. PMNLs (10^6 cells/probe in HBSS/HEPES) supplemented with 1 µM ODN +/- 1 µM LRR11, except for control samples containing HBSS/HEPES instead of ODNs, were incubated in fibrinogen-coated 24-well plates for 20 min at 37 °C in 5 % CO2. The supernatants were then carefully removed, and wells were washed twice with warm PBS to remove unattached cells. Adhesion quantitative assessment was carried out as described in [59]. Briefly, hydrogen peroxide (4 mM final concentration) in permeabilizing buffer (67 mM Na2HPO4, 35 mM citric acid, 0.1% Triton X-100) supplemented with 5.5 mM ortho-phenylenediamine was added to the attached PMNLs for 5 min. The reaction was stopped by adding of 1M H2SO4, followed by recording the absorption values at 492 nm and comparing them with the calibration values. Data are means ± SEM of attached cells amounts, as the percentages of PMNLs initially contained in the samples (n=3; *p < 0.05; **p < 0.01 in comparison with corresponding controls, as indicated by two-way ANOVA followed by Dunnett’s multiple comparison test). […]

NeutrAvidin = test: TSM acoustic biosensor, immobilization of 5′-biotinylated C-CpG on NeutrAvidin surface; assay type: binding; conditions: Sauerbrey's equation, 1 μM 5′-biotinylated ODN on NeutrAvidin
Text: Using Sauerbrey’s Equation (2), (2) Δf=−2f02Δm/Aμqρq where f0 is the fundamental resonance frequency (in our case 8 MHz), Δm is the change in mass (in grams) of the adsorbed layer on the crystal surface, A is the effective crystal area (in our case 0.2 cm^2), μq = 2.947 × 10^11 g × cm^−1s^−2 is the shear modulus of elasticity, and ρq = 2.648 g × cm^−3 is the crystal density, surface concentrations of NeutrAvidin, ODN and LRR11 peptide were estimated based on changes of resonance frequency (Figure 4). According to Equation (2), the surface density of molecules, σ (in molecules/cm^2), can be calculated as σ = ΔmNA/(A × Mw), where NA is Avogadro’s number (=6.023 × 10^23 mol^−1), and Mw represents the molecular weight of the corresponding compound (NeutrAvidin: 65 kDa, 5′-biotinylated C-CpG: 7115.4 Da, and LRR11: 3421 Da). Based on this approach, we obtained the following surface concentration values: 1.94 × 10^13 cm^−2 for NeutrAvidin, 3.37 × 10^13 cm^−2 for C-CpG and 2.4 × 10^13 cm^−2 for LRR11. The NeutrAvidin has four binding sites, two of which are available for biotinylated ODN binding. This is due to the fact that the other two sites are inaccessible due to NeutrAvidin chemisorption on the TSM surface. Thus, the number of available binding sites for the ODN is 3.88 × 10^13 cm^−2. […] Therefore, the surface of the TSM transducer is practically completely saturated by C-CpG. […]

Row | Substance | effect of LRR11 on calcium ion influx with/without ODNs (human neutrophils; 1 µM LRR11 +/- 1 µM ODNs) | calcium influx (human neutrophils; 1 µM LRR11 or 1 µM ODNs, Fluo-3, 37 °C, n = 3) | time course of cytoplasmic Ca^2+ concentration (human neutrophils; 1 µM LRR11 or 1 µM ODNs) | effect on PMNL adhesion (PMNLs) | surface concentration of C-CpG (NeutrAvidin)
1 | QLRKLNLSFNYQKRVSFAHLSLAPSFGSLV [LRR11, 30 amino acid peptide from leucine-rich repeat of TLR9] | noticeable only in the absence of ODNs | potentiates calcium influx | ensures long-term maintenance of an increased cytoplasmic Ca^2+ concentration | LRR11 did not affect this | –
2 | 5′-tcgtcgttttcggcgcgcgccg-3′ (DNA TCGTCGTTTTCGGCGCGCGCCG; chemistry not fully specified) [C-CpG] | – | – | – | – | 3.37 × 10^13 cm^−2
